Values joined by “and” are separate entries in the source; they are usually repeats but may differ in a detail not shown here. Identical values can stand only once. Like-named read-outs stand apart in the source and are kept apart here.
Tests used:
[1] = tested on: Trypanosoma cruzi epimastigotes (Tulahuen 2 strain); assay: Anti-Trypanosoma cruzi activity: growth inhibition of epimastigotes (absorbance at 600 nm, day 5); type: cell-based; settings: T. cruzi epimastigotes; for IC50: read-out: IC50
Experimental: Trypanosoma cruzi epimastigotes (Tulahuen 2 strain) were grown at 28 °C in an axenic milieu (BHI-Tryptose) supplemented with 5% fetal bovine serum (FBS), as previously described. Cells from a 10-day-old culture (stationary phase) were inoculated into 50 mL of fresh culture milieu to give an initial concentration of 1 × 10^6 cells per mL. Cell growth was followed by measuring the absorbance of the culture at 600 nm every day. Before inoculation, the milieu was supplemented with a given amount of the coumarin from a freshly prepared stock solution in DMSO (25 mM). The final concentration of DMSO in the culture medium never exceeded 0.4%, and the control was run in the presence of 0.4% DMSO and in the absence of drugs. […] Nifurtimox (Nfx) was used as the reference trypanocidal drug. The percentage of growth inhibition (PGI) was calculated as follows: PGI (%) = {1 - [(Ap - A0p) / (Ac - A0c)]} × 100, where Ap = […] of the culture containing the studied compound at day 5; […] = […] of the culture containing the studied compound just after addition of the inocula (day 0); Ac = […] of the culture in the absence of the studied compound (control) at day 5; […] = […] in the absence of the studied compound at day 0. […] At day 5, the absorbance of the culture was measured and related to the control.

[2] = tested on: Caenorhabditis elegans N2 (wild type); settings: L1 worms exposed 30 min, survival counted 24 hours after exposure
Experimental: The nematode strain used was N2 (wild type), originally obtained from the Caenorhabditis Genetics Center (University of Minnesota, Twin Cities, MN, USA), which was maintained on nematode growth medium (NGM) plates seeded with Escherichia coli OP50 at 20°C. Synchronization of C. elegans cultures at the first larval stage (L1) was achieved by washing off the gravid nematodes from the plates into the centrifuge tubes, which were lysed with a bleaching mixture (1% NaOCl; 0.25 M NaOH), followed by flotation on a sucrose solution 30% (m/v) to separate the eggs from the dissolved worms and bacterial debris. The eggs were washed with M9 buffer (0.02 M KH2PO4, 0.04 M Na2HPO4, 0.08 M NaCl, and 0.001 M MgSO4) and allowed to hatch overnight (16 hours) in NGM agar plates without bacteria. After 16 hours it was obtained worms at L1 stage. Then, 1.500 L1 worms were exposed for 30 minutes at 20°C, by constant agitation in a rotator, at crescent doses ranging from 25 to 100 mM of coumarins in a 0.5% NaCl liquid media. Stock solutions of coumarins were made in DMSO, therefore worms treated with 0.5% NaCl and 0.5% DMSO were used as controls. After exposure, worms were washed 3 times with 0.5% NaCl to remove the treatments. Finally, worms were transferred to NGM recovery plates inoculated with Escherichia coli (OP50) for posterior assays.
The LD50 of coumarins was determined in C. elegans after exposure. The worms were washed three times with NaCl buffer and placed on OP50-seeded NGM plates. The number of surviving worms on each plate was verified 24 hours after exposure. The lethality data was normalized with the controls and presented as a percentage. All the coumarins were tested in three independent experiments with each concentration tested in two replicates within each experiment.

[3] = tested on: Caenorhabditis elegans N2 (wild type); assay: Body area (worm development) of C. elegans after acute exposure; type: in vivo; settings: 30 min exposure, measured 48 hours after exposure; tested 25 to 100 mM; ANOVA/Bonferroni
Experimental: For the evaluation of body area, 48 hours after exposure the adult worms (20 nematodes per treatment) were photographed and their body contour was measured. For this, the NGM plates were washed with distilled water and the resulting solution was transferred to a centrifuge tube, where the worm was allowed to settle, separating it from the bacteria in suspension. The process was repeated until the solution became clear. […] The pictures were acquired from 20 worms per treatment, which were manually contoured and measured with AxioVision software LE version 4.8.2.0 for Windows.

[4] = tested on: Trypanosoma cruzi epimastigotes (Tulahuen 2 strain); parameters: method as in PMID 19811923; settings: in vitro, epimastigote form of T. cruzi; cited from earlier work
[5] = tested on: T. cruzi; parameters: method as in doi:10.1351/pac200173030617; settings: proposed mechanism glyceraldehyde 3-phosphate dehydrogenase inhibition; cited from earlier work
[6] = tested on: C. elegans; parameters: method as in PMID 23727123; settings: for the worm; cited from earlier work
[7] = tested on: Trypanosoma cruzi; parameters: method as in PMID 24340110; settings: cited from earlier work
[8] = Trypanosoma cruzi, TULAHUEN, 120 h

Cc1ccc2oc(=O)cc(CN(C)c3ccccc3)c2c1 [10g]
IC50 [1]: 8.9 µM | IC50 [1, 8]: < 10 µM | LD50 (DL50) [2]: 42.3 mM

CCc1ccc2oc(=O)cc(CN(C)c3ccccc3)c2c1 [11g]
IC50 [1]: < 10 µM | GI (%) / percentage of growth inhibition (PGI) ([1]; test concentration not given): < 78.6% | IC50 [1, 8]: 8.2 ± 2.3 µM | LD50 (DL50) [2]: 61.7 mM and 61.50 mM | LD50 (DL50) ([2]; listed as LaSOM 231): 61.55 mM

CCc1ccc2oc(=O)cc(CN(C)c3ccc(Cl)cc3)c2c1 [11h]
IC50 [1]: < 10 µM | IC50 [1, 8]: 6.4 ± 1 µM | LD50 (DL50) [2]: 73.4 mM and 70.81 mM | concentrations with significant reduction of body area compared with the control [3]: 50000 µM

O=C(Cn1ccnc1[N+](=O)[O-])NCc1ccccc1 [Benznidazole]
IC50 compared with Nifurtimox [4]: very similar IC50 values

C=CC(C)(C)c1cc2cc3c(cc2oc1=O)O[C@H](C(C)(C)O)C3 [Chalepin]
IC50 [5]: 64 µM

CCCSc1ccc2nc(NC(=O)OC)[nH]c2c1 [albendazole]
EC50 [6]: 18.4 µM

Soulamarin
IC50 [7]: 210 µM

From paper PMC6921407, “Novel coumarins active against Trypanosoma cruzi and toxicity assessment using the animal model Caenorhabditis elegans” (BMC Pharmacology & Toxicology, 2019)
